Source: patent US11077090B2, “Compounds and compositions and uses thereof” (Sunovion Pharmaceuticals Inc., priority 2016, dated 2021)
Like-named read-outs stand apart in the source and are kept apart here.

System: compound-treated mice
Test: Neuropharmacological assay (SmartCube): behavioral activity signature and minimal effective dose
Assay type: in vivo
Settings: for minimal effective dose: Mus musculus, ip, MED = dose having 50% or more total activity; for AD: ADHD (probability of activity signature) / AG: analgesic (probability of activity signature) / AX: anxiolytic (probability of activity signature) / CE: cognitive enhancer (probability of activity signature) / DP: anti-depressant (probability of activity signature) / MS: mood stabilizer (probability of activity signature) / PS: anti-psychotic (probability of activity signature) / SD: sedative hypnotic (probability of activity signature) / UN: uncharacterized CNS activity (probability of activity signature): i.p. 15 min before test, most efficacious dose(s)
Outline: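 Mice dosed i.p. 15 min before test, compound in N-methyl-2-pyrrolidone/PEG/propylene glycol, 3 doses; video-captured behavior matched to reference-drug signatures, giving per-class probabilities at most efficacious dose. MED from doses typically 0.3–30 mpk, defined as lowest dose with ≥50% total activity.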

[1] = read-out: Potency: minimal effective dose (MED)
[2] = read-out: Potency: minimal effective dose (MED), binned

Structure (SMILES)	minimal effective dose [1] [mg/kg]	AD: ADHD (probability of activity signature)	AG: analgesic (probability of activity signature)	AX: anxiolytic (probability of activity signature)	CE: cognitive enhancer (probability of activity signature)	DP: anti-depressant (probability of activity signature)	MS: mood stabilizer (probability of activity signature)	PS: anti-psychotic (probability of activity signature)	SD: sedative hypnotic (probability of activity signature)	UN: uncharacterized CNS activity (probability of activity signature)	minimal effective dose [2] [mg/kg]
CN[C@@H]1COCc2ccc(OC)cc21 [Example 139]	3 to 10	+ (LOQ ≤ + <5%)	++ (5% ≤ ++ <25%)	++ (5% ≤ ++ <25%)	++ (5% ≤ ++ <25%)	++ (5% ≤ ++ <25%)	+ (LOQ ≤ + <5%)	++ (5% ≤ ++ <25%)	+ (LOQ ≤ + <5%)	+++ (25% ≤ +++ <50%)	
CNC1CCOCc2ccc(C)cc21.Cl (centres unmarked) [Example 59]	3 to 10	+ (LOQ ≤ + <5%)	+++ (25% ≤ +++ <50%)	++ (5% ≤ ++ <25%)	++ (5% ≤ ++ <25%)	++ (5% ≤ ++ <25%)	+ (LOQ ≤ + <5%)	++ (5% ≤ ++ <25%)	++ (5% ≤ ++ <25%)	+++ (25% ≤ +++ <50%)	
CN[C@@H]1COCc2ccc(C)c(C)c21 [Example 143]	3 to 10	+ (LOQ ≤ + <5%)	+++ (25% ≤ +++ <50%)	++ (5% ≤ ++ <25%)	++ (5% ≤ ++ <25%)	++ (5% ≤ ++ <25%)	+ (LOQ ≤ + <5%)	+ (LOQ ≤ + <5%)	++ (5% ≤ ++ <25%)	++ (5% ≤ ++ <25%)	
Cc1cccc2c1[C@@H](C)OC[C@H]2N (single isomer, unassigned) [Example 254]		+ (LOQ ≤ + <5%)	+ (LOQ ≤ + <5%)	+ (LOQ ≤ + <5%)	+ (LOQ ≤ + <5%)	+ (LOQ ≤ + <5%)	+ (LOQ ≤ + <5%)	+ (LOQ ≤ + <5%)	++ (5% ≤ ++ <25%)	++ (5% ≤ ++ <25%)	3 to 10
Cc1cccc2c1[C@H](N)[C@H](C)OC2.Cl [Example 82]	< 3	+ (LOQ ≤ + <5%)	++ (5% ≤ ++ <25%)	+++ (25% ≤ +++ <50%)	++ (5% ≤ ++ <25%)	++ (5% ≤ ++ <25%)	+ (LOQ ≤ + <5%)	++ (5% ≤ ++ <25%)	++ (5% ≤ ++ <25%)	+++ (25% ≤ +++ <50%)	
Cc1cc2c(cc1C)[C@H](N)[C@@H](C)OC2.Cl [Example 238]		+ (LOQ ≤ + <5%)	+ (LOQ ≤ + <5%)	++ (5% ≤ ++ <25%)	++ (5% ≤ ++ <25%)	+ (LOQ ≤ + <5%)	+ (LOQ ≤ + <5%)	++ (5% ≤ ++ <25%)	+ (LOQ ≤ + <5%)	++++ (50% ≤ ++++)	10 to 30
COc1cccc2c1CO[C@H](C)[C@H]2N.Cl [Example 235]		+ (LOQ ≤ + <5%)	+ (LOQ ≤ + <5%)	++ (5% ≤ ++ <25%)	+ (LOQ ≤ + <5%)	+ (LOQ ≤ + <5%)	+ (LOQ ≤ + <5%)	+ (LOQ ≤ + <5%)	+ (LOQ ≤ + <5%)	+ (LOQ ≤ + <5%)	> 30
Cc1ccc(C)c2c1COC[C@@H]2N (single isomer, unassigned) [Example 166]		+ (LOQ ≤ + <5%)	+ (LOQ ≤ + <5%)	++ (5% ≤ ++ <25%)	++ (5% ≤ ++ <25%)	+ (LOQ ≤ + <5%)	+ (LOQ ≤ + <5%)	++ (5% ≤ ++ <25%)	++ (5% ≤ ++ <25%)	++++ (50% ≤ ++++)	3 to 10
COc1ccc2c(c1)C(N)COC2.Cl (centres unmarked) [Example 10, 6-Methoxyisochroman-4-amine hydrochloride]	3 to 10	+ (LOQ ≤ + <5%)	++ (5% ≤ ++ <25%)	++ (5% ≤ ++ <25%)	+++ (25% ≤ +++ <50%)	++ (5% ≤ ++ <25%)	+ (LOQ ≤ + <5%)	+++ (25% ≤ +++ <50%)	++ (5% ≤ ++ <25%)	++ (5% ≤ ++ <25%)	
C[C@H]1OCc2cccc(Cl)c2[C@@H]1N [Example 159]		+ (LOQ ≤ + <5%)	+ (LOQ ≤ + <5%)	+++ (25% ≤ +++ <50%)	+ (LOQ ≤ + <5%)	+++ (25% ≤ +++ <50%)	+ (LOQ ≤ + <5%)	+ (LOQ ≤ + <5%)	+ (LOQ ≤ + <5%)	++ (5% ≤ ++ <25%)	3 to 10
C[C@@H]1OCc2cc(F)ccc2[C@@H]1N.Cl (single isomer, unassigned) [Example 212]		+ (LOQ ≤ + <5%)	++ (5% ≤ ++ <25%)	++ (5% ≤ ++ <25%)	+ (LOQ ≤ + <5%)	+ (LOQ ≤ + <5%)	+ (LOQ ≤ + <5%)	+ (LOQ ≤ + <5%)	+ (LOQ ≤ + <5%)	++++ (50% ≤ ++++)	10 to 30
